The results in this text go back to patent US8586588B2, “Aryl pyridazinone derivatives and their use as H3 receptor ligands” (Cephalon, Inc., priority 2006, dated 2013).

In one data set the target is T1, human H3 receptor (Homo sapiens, UniProt Q9Y5N1).
T1 construct: expressed in transfected cells
Put plainly: Human H3 radioligand binding ([3H]-N-alpha-methylhistamine, CHO cell membranes, SPA). Conditions: binding constant as letter class. In a few lines:
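Scintillation proximity format: bead-proximal [3H]-N-alpha-methylhistamine (approximately 1 nM final) bound to human H3 receptor in CHO membranes was counted after 4 h at room temperature, light-protected. Buffer was pH 7.4 Tris/MgCl2/BSA; test compounds spanned 0.01 nM-30 μM; 10 μM clobenpropit set non-specific binding.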

The target in data set [1] is T2, rat histamine H3 receptor (Rattus norvegicus, UniProt Q9QYN8).
T2 construct: encoding the entire 445-amino-acid rat histamine H3 receptor; expressed in transfected cells
T2 sequence (Q9QYN8 whole entry): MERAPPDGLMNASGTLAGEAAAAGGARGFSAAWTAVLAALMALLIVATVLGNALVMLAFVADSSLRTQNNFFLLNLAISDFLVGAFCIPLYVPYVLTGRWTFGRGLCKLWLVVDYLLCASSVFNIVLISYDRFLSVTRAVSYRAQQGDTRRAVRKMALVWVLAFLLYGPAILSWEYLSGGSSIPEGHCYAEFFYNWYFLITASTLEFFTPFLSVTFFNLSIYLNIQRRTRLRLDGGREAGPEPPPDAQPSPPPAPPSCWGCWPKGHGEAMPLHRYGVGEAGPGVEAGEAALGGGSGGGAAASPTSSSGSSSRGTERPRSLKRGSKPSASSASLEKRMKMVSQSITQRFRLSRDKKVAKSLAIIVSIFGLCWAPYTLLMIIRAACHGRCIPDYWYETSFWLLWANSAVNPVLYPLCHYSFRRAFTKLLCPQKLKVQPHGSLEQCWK
Kind of data set: Rat H3 radioligand binding ([3H]-N-alpha-methylhistamine, CHO-A3 cell membranes, SPA). In a few lines: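 Scintillation proximity displacement of about 1 nM [3H]-N-alpha-methylhistamine, test compound 0.01 nM-30 μM, 4 h, room temperature, in the dark. Receptor source: rat H3 stably transfected into CHO-A3 cells, 10 μg membrane protein, Tris-HCl pH 7.4/MgCl2/BSA buffer. Nonspecific binding defined by 10 μM clobenpropit.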

Setting [2] is: Table B, binding constant as letter class, read-out: rat H3 Ki.

SMILES strings stand for the structures. pKi: −log10 of the molar value. Structures can show the parent of a compound that is named as a salt. Where two headings read alike, the source gives them in different places.

T1 sequence (Q9Y5N1 whole entry): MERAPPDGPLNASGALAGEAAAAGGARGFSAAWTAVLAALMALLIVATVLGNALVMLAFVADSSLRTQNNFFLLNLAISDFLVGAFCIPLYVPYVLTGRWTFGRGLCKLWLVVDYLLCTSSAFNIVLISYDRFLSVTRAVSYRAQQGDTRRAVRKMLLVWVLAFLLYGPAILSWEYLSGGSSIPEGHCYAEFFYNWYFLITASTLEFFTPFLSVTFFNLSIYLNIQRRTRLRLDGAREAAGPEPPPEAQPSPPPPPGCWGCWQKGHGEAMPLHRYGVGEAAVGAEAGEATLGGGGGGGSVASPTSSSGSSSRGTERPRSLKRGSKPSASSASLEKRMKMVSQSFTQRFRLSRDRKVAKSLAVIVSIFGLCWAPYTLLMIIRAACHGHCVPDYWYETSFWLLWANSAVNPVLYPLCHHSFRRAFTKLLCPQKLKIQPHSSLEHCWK

For orientation: pKi means the Ki on a negative log10 scale, so that one unit is a factor of ten. In general, melting point refers to the temperature, or range, at which the solid turns liquid. The compound `Cn1nc(-c2ccc(OCC3CCN(C(=O)OC(C)(C)C)CC3)cc2)ccc1=O` [Example 65, 4-[4-(1-Methyl-6-oxo-1,6-dihydro-pyridazin-3-yl)-phenoxymethyl]-piperidine-1-carboxylic acid tert-butyl ester] registered a melting point of 164 to 166 °C. The negative-log Ki (pKi) on human H3 receptor (Table A) is < 6.00. Besides, in data set [1] (Table A, binding constant as letter class, read-out: Rat H3 Ki), the negative-log Ki (pKi) is < 6.00.
Compound `C[C@@H]1CCCN1CCCOc1ccc(-n2ncc3ccccc3c2=O)cc1` [Example 202, 2-{4-[3-((R)-2-Methyl-pyrrolidin-1-yl)-propoxy]-phenyl}-2H-phthalazin-1-one] yielded a melting point of 70 to 73 °C. The same compound gave a pKi at human H3 receptor (Table B) of 7.00 to 10.00. The negative-log Ki (pKi) in data set [1] (setting [2]) was 7.00 to 10.00.
For the compound `CC1CC(=O)NN=C1c1ccc(OC2CCN(C3CCC3)CC2)cc1` (racemic) [Example 189, 6-[4-(1-Cyclobutyl-piperidin-4-yloxy)-phenyl]-5-methyl-4,5-dihydro-2H-pyridazin-3-one], the melting point fell in the range of 163 to 165 °C. The compound further showed a negative logarithm of the Ki (pKi) in data set [1] of 7.00 to 10.00.
Turning to `O=C1CCC(c2ccc(OC3CCN(C4CCC4)CC3)c(F)c2)=NN1` [Example 151, 6-[4-(1-Cyclobutyl-piperidin-4-yloxy)-3-fluoro-phenyl]-4,5-dihydro-2H-pyridazin-3-one], the melting point was 195 to 197 °C. The same compound had a pKi on human H3 receptor (Table B) of 7.00 to 10.00. Moreover, the pKi in data set [1] (setting [2]) was 7.00 to 10.00.
With `Cc1onc2c(=O)[nH]nc(-c3ccc(OCCCN4CCCCC4)cc3)c12` [Example 207, 3-Methyl-4-[4-(3-piperidin-1-yl-propoxy)-phenyl]-6H-isoxazolo[3,4-d]pyridazin-7-one], the melting point was 178 to 179 °C. This compound also had a pKi on human H3 receptor (Table B) of 7.00 to 10.00. Also, the pKi in data set [1] (setting [2]) was 7.00 to 10.00.
Turning to `O=C1CCC(c2ccc(OC3CCN(C4CCC4)CC3)nc2)=NN1C1CCC1` [Example 177, 2-Cyclobutyl-6-[6-(1-cyclobutyl-piperidin-4-yloxy)-pyridin-3-yl]-4,5-dihydro-2H-pyridazin-3-one], the melting point fell in the range of 146 to 149 °C. Further, at human H3 receptor (Table B), the pKi is 7.00 to 10.00. For the same compound, the negative logarithm of the Ki (pKi) in data set [1] (setting [2]) was 7.00 to 10.00.
With `C[C@@H]1CCCN1CCCOc1ccc(C2=NNC(=O)C3CCC23)cc1` (stereo partly drawn) [Example 173, 5-{4-[3-((R)-2-Methyl-pyrrolidin-1-yl)-propoxy]-phenyl}-3,4-diaza-bicyclo[4.2.0]oct-4-en-2-one], the melting point lay in the range of 218 to 220 °C. Moreover, the pKi at human H3 receptor (Table B) was 7.00 to 10.00. The negative-log Ki (pKi) in data set [1] (setting [2]) was 7.00 to 10.00.
The compound `C[C@@H](COc1ccc(-c2cn[nH]c(=O)c2)cc1)CN1CCC[C@H]1C` [Example 226, 5-{4-[(R)-2-Methyl-3-((R)-2-methyl-pyrrolidin-1-yl)-propoxy]-phenyl}-2H-pyridazin-3-one] gave a melting point of 130 to 133 °C. The compound also had a pKi in data set [1] of 7.00 to 10.00.
The compound `C[C@@H]1CCCN1CCCOc1ccc(-c2cc(Cc3ccccc3)c(=O)n(C)n2)cc1` (as salt: HCl) [Example 45, 4-Benzyl-2-methyl-6-{4-[3-((R)-2-methyl-pyrrolidin-1-yl)-propoxy]-phenyl}-2H-pyridazin-3-one] displayed a melting point of 232 to 233 °C.
Compound `C[C@@H]1CCCN1CCCOc1ccc2c(c1)CCC1CC(=O)NN=C21` (stereo partly drawn) (as salt: HCl) [Example 212, 8-[3-(2-Methyl-pyrrolidin-1-yl)-propoxy]-4,4a,5,6-tetrahydro-2H-benzo[h]cinnolin-3-one] returned a melting point of 193 to 195 °C.
Regarding `CCCn1nc(-c2ccc(OCCCN3[C@H](C)CC[C@H]3C)cc2)c2sccc2c1=O` (as salt: HCl) [Example 33, 7-{4-[3-((2R,5R)-2,5-Dimethyl-pyrrolidin-1-yl)-propoxy]-phenyl)-5-propyl-5H-thieno[2,3-d]pyridazin-4-one], the melting point is 84 °C (dec.).
The same measure, in the same setting: next, `Cn1nc(-c2ccc(OCCCN3CCCCCC3)cc2)c2ccccc2c1=O` (as salt: HCl) [Example 53, 4-[4-(3-Azepan-1-yl-propoxy)-phenyl]-2-methyl-2H-phthalazin-1-one]: 238 to 240 °C; `Cn1nc(-c2ccc(OCC3CCN(C4CCC4)CC3)cc2)c2ccccc2c1=O` (as salt: HCl) [Example 64, 4-[4-(1-Cyclobutyl-piperidin-4-ylmethoxy)-phenyl]-2-methyl-2H-phthalazin-1-one]: 256 to 257 °C; `O=c1cc(-c2ccc(OCCCN3CCCCCC3)cc2)cnn1-c1ccccn1` (as salt: HCl) [Example 96, 5-[4-(3-Azepan-1-yl-propoxy)-phenyl]-2-pyridin-2-yl-2H-pyridazin-3-one]: 230 to 232 °C.
Turning to `C[C@@H]1CCCN1CCCOc1ccc(-c2n[nH]c(=O)cc2-c2ccccn2)cc1` (as salt: hydrochloride) [Example 112, 6-{4-[3-((R)-2-Methyl-pyrrolidin-1-yl)-propoxy]-phenyl}-5-pyridin-2-yl-2H-pyridazin-3-one], the melting point was 234 °C (dec.).
`Cc1nn(C)c(=O)cc1-c1ccc(OCCCN2CCC[C@H]2C)cc1` (as salt: HCl) [Example 86, 2,6-Dimethyl-5-{4-[3-((R)-2-methyl-pyrrolidin-1-yl)-propoxy]-phenyl}-2H-pyridazin-3-one] came in with a melting point of 176 to 178 °C.
The same measure, in the same setting: then `COc1cn[nH]c(=O)c1-c1ccc(OCCCN2CCC[C@H]2C)cc1` (as salt: hydrochloride) [Example 237, 5-Methoxy-4-{4-[3-((R)-2-methyl-pyrrolidin-1-yl)-propoxy]-phenyl}-2H-pyridazin-3-one], with 135 to 140 °C; and `Cn1nc(-c2ccc(OCCCN3CCCCC3)cc2)c2c(c1=O)CCC2` (as salt: HCl) [Example 57, 2-Methyl-4-[4-(3-piperidin-1-yl-propoxy)-phenyl]-2,5,6,7-tetrahydro-cyclopenta[d]pyridazin-1-one], with 214 to 216 °C; and `O=c1c2ccccc2c(-c2ccc(OCCCN3CCCCC3)cc2)nn1Cc1ccc(Cl)cc1` (as salt: HCl) [Example 55, 2-(4-Chloro-benzyl)-4-[4-(3-piperidin-1-yl-propoxy)-phenyl]-2H-phthalazin-1-one], with 216 to 217 °C.
Same read-out and setting: then `C[C@@H]1CCCN1CCCOc1ccc(-c2ccc(=O)n(C)n2)cc1F` (as salt: HCl) [Example 7, 6-{3-Fluoro-4-[3-((R)-2-methyl-pyrrolidin-1-yl)-propoxy]-phenyl}-2-methyl-2H-pyridazin-3-one], with 140 to 142 °C; and `C[C@@H]1CCCN1CCCOc1ccc(C2=NN(c3ccccc3)C(=O)CC2)cc1` (as salt: HCl) [Example 19], with 213 to 215 °C.
Same read-out and setting: then `Cc1cc(-c2ccc(OCCCN3CCC[C@H]3C)cc2)n[nH]c1=O` (as salt: HCl) [Example 122, 4-Methyl-6-{4-[3-((R)-2-methyl-pyrrolidin-1-yl)-propoxy]-phenyl}-2H-pyridazin-3-one], with 207 to 208 °C.
`C[C@H](COc1ccc(-c2cn[nH]c(=O)c2)cc1)CN1CCC[C@H]1C` [Example 225, 5-{4-[(S)-2-Methyl-3-((R)-2-methyl-pyrrolidin-1-yl)-propoxy]-phenyl}-2H-pyridazin-3-one] came in with a melting point of 154 to 156 °C. Moreover, the pKi in data set [1] is 7.00 to 10.00.
`Cn1nc(-c2ccc(OCCN3CCCCC3)cc2)c2ccccc2c1=O` (as salt: HCl) [Example 51, 2-Methyl-4-[4-(2-piperidin-1-yl-ethoxy)-phenyl]-2H-phthalazin-1-one] had a melting point of 253 to 254 °C.
Still for that read-out and setting: next, `Cn1nc(-c2ccc(OCCCN3CCC[C@@H]3CO)cc2)ccc1=O` (as salt: HCl) [Example 15, 6-{4-[3-((R)-2-Hydroxymethyl-pyrrolidin-1-yl)-propoxy]-phenyl}-2-methyl-2H-pyridazin-3-one]: 166 to 167 °C.
On the same count and under the same terms, then `CC(C)n1nc(-c2ccc(OCCCN3CCCCC3)cc2)c2sccc2c1=O` (as salt: HCl) [Example 24, 5-Isopropyl-7-[4-(3-piperidin-1-yl-propoxy)-phenyl]-5H-thieno[2,3-d]pyridazin-4-one], with 195 to 196 °C; and `C[C@@H]1CCCN1CCCOc1ccc(-c2cnn(C)c(=O)c2)cc1` (as salt: hydrochloride) [Example 91, 2-Methyl-5-{4-[3-((R)-2-methyl-pyrrolidin-1-yl)-propoxy]-phenyl}-2H-pyridazin-3-one], with 222 to 223 °C.
`COCn1ncc(-c2ccc(OC3CCN(C4CCC4)CC3)cc2C)cc1=O` (as salt: HCl) [Example 234, 5-[4-(1-Cyclobutyl-piperidin-4-yloxy)-2-methyl-phenyl]-2-methoxymethyl-2H-pyridazin-3-one] showed a melting point of 119.5 to 123.5 °C.
Still for that read-out and setting: next, `Cc1cc(-c2ccc(OCCCN3CCC[C@H]3C)cc2)nn(C)c1=O` (as salt: HCl) [Example 40, 2,4-Dimethyl-6-{4-[3-((R)-2-methyl-pyrrolidin-1-yl)-propoxy]-phenyl}-2H-pyridazin-3-one]: 175 to 176 °C; `C[C@@H]1CCCN1CCCOc1ccc(-c2ccc(=O)n(-c3ccccc3)n2)cc1F` (as salt: HCl) [Example 81, 6-{3-Fluoro-4-[3-((R)-2-methyl-pyrrolidin-1-yl)-propoxy]-phenyl}-2-phenyl-2H-pyridazin-3-one]: 190 to 191 °C.
